# Measurements as given in the supplement of paper PMC11208160.
# Assay: recombinant UMI read abundance after kanamycin selection (control-corrected) (log10(CPM+1)); higher = more efficient recombination; extreme values may be limits of the assay; sequences stand for … in AGTGCAGAGAAAATCGGCCAGTTTTCTCTGCCTGCAGTCCGCATGCCGTGGGACCCCTTGGGTTCTAACCTGTTGCCTAGATTTATGCAGCGGACTGCCTTTCTCCCAAAGTGATAAACCGG…AGGTTGGTTTCACT; site = the 11-nt donor
# How it was run: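 Two replicates each of selected and unselected plating were used in this pooled Escherichia coli screen of donor and donor-binding-loop pairs for the IS621 bridge recombinase. Selection was with IPTG (0.07 mM) and kanamycin. Counts of recombinant UMIs, amplified across the donor–target junction, were converted to CPM, averaged, scaled by control-derived factors and reported as log10(CPM+1).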
# 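Also: IS621 bridge recombinase in Escherichia coli cells against a fixed T5 target plasmid.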
row,Sequence,recombinant UMI read abundance (log10)
1,GGTAGCGCATGGACCGGTTTTCCCGGTAATCCGTATTTGTT (site GGTAGCGCTAA),1.5
2,GGTCAAACATGGACCGGTTTTCCCGGTAATCCGTATTTGTA (site GGTCAAACTTA),0.645
3,GGTCAAACATGGACCGGTTTTCCCGGTAATCCGTATTTGTA (site GGTCCAACTTA),0.0193
4,GGTCAAACATGGACCGGTTTTCCCGGTAATCCGTATTTGTA (site GGTCGAACTTA),0.00424
5,GGTCAAACATGGACCGGTTTTCCCGGTAATCCGTATTTGTA (site GGTCTAACTTA),0.0103
6,GGTCACGCATGGACCGGTTTTCCCGGTAATCCGTATTTGTC (site GGTCACGCTGA),2.56
7,GGTCAGTCATGGACCGGTTTTCCCGGTAATCCGTATTTGGA (site GGTCAGTCTTC),0.503
8,GGTCCAACATGGACCGGTTTTCCCGGTAATCCGTATTTGAT (site GGTCCAACTAT),0
9,GGTCCAACATGGACCGGTTTTCCCGGTAATCCGTATTTGGA (site GGTCCAACTTA),0.00455
10,GGTCCAACATGGACCGGTTTTCCCGGTAATCCGTATTTGGA (site GGTCCAACTTC),0.0919
11,GGTCCAACATGGACCGGTTTTCCCGGTAATCCGTATTTGGA (site GGTCCAACTTG),0.0106
12,GGTCCAACATGGACCGGTTTTCCCGGTAATCCGTATTTGGA (site GGTCCAACTTT),0.00506
13,GGTCCAACATGGACCGGTTTTCCCGGTAATCCGTATTTGTC (site GGTCCAACTAA),0.015
14,GGTCCAACATGGACCGGTTTTCCCGGTAATCCGTATTTGTC (site GGTCCAACTCA),0.00327
15,GGTCCAACATGGACCGGTTTTCCCGGTAATCCGTATTTGTC (site GGTCCAACTGA),0
16,GGTCCAACATGGACCGGTTTTCCCGGTAATCCGTATTTGTC (site GGTCCAACTTA),0.035
17,GGTCCACCATGGACCGGTTTTCCCGGTAATCCGTATTTGTA (site GGTCCAACTTA),0.0242
18,GGTCCACCATGGACCGGTTTTCCCGGTAATCCGTATTTGTA (site GGTCCACCTTA),0.0126
19,GGTCCACCATGGACCGGTTTTCCCGGTAATCCGTATTTGTA (site GGTCCAGCTTA),0.0357

row,Sequence,recombinant UMI read abundance (log10)
1,GGTCCACCATGGACCGGTTTTCCCGGTAATCCGTATTTGTA (site GGTCCATCTTA),0.0355
2,GGTCCAGCATGGACCGGTTTTCCCGGTAATCCGTATTTGAA (site GGTCCAGCTTT),0.307
3,GGTCCAGCATGGACCGGTTTTCCCGGTAATCCGTATTTGTA (site GGTCCAACTTA),0
4,GGTCCAGCATGGACCGGTTTTCCCGGTAATCCGTATTTGTA (site GGTCCACCTTA),0.00451
5,GGTCCAGCATGGACCGGTTTTCCCGGTAATCCGTATTTGTA (site GGTCCAGCTTA),1.56
6,GGTCCAGCATGGACCGGTTTTCCCGGTAATCCGTATTTGTA (site GGTCCATCTTA),0.0161
7,GGTCCGTCATGGACCGGTTTTCCCGGTAATCCGTATTTGTT (site GGTACGTCTAA),0.00692
8,GGTCCGTCATGGACCGGTTTTCCCGGTAATCCGTATTTGTT (site GGTCCGTCTAA),0.00423
9,GGTCCGTCATGGACCGGTTTTCCCGGTAATCCGTATTTGTT (site GGTGCGTCTAA),0.0122
10,GGTCCGTCATGGACCGGTTTTCCCGGTAATCCGTATTTGTT (site GGTTCGTCTAA),0.0141
11,GGTCGAACATGGACCGGTTTTCCCGGTAATCCGTATTTGTA (site GGTCAAACTTA),0.0946
12,GGTCGAACATGGACCGGTTTTCCCGGTAATCCGTATTTGTA (site GGTCCAACTTA),0.00781
13,GGTCGAACATGGACCGGTTTTCCCGGTAATCCGTATTTGTA (site GGTCGAACTTA),0.761
14,GGTCGAACATGGACCGGTTTTCCCGGTAATCCGTATTTGTA (site GGTCTAACTTA),0.00734
15,GGTGACCCATGGACCGGTTTTCCCGGTAATCCGTATTTGCA (site GGTGACCCTTG),0.706
16,GGTGCAGCATGGACCGGTTTTCCCGGTAATCCGTATTTGGA (site GGTGCAGCTTC),0.0152
17,GGTGCCACATGGACCGGTTTTCCCGGTAATCCGTATTTGGT (site GGTGCCACTAC),0.406
18,GGTGCGACATGGACCGGTTTTCCCGGTAATCCGTATTTGTT (site GGTGCGACTAA),0.345
19,GGTGCTACATGGACCGGTTTTCCCGGTAATCCGTATTTGGA (site GGTGCTACTTC),0.449

row,Sequence,recombinant UMI read abundance (log10)
1,GGTGGTCCATGGACCGGTTTTCCCGGTAATCCGTATTTGCC (site GGTGGTCCTGG),0
2,GGTGTCCCATGGACCGGTTTTCCCGGTAATCCGTATTTGAA (site GGTGTCCCTTT),0.0114
3,GGTGTGGCATGGACCGGTTTTCCCGGTAATCCGTATTTGTT (site GGTGTGGCTAA),0.894
4,GGTGTTTCATGGACCGGTTTTCCCGGTAATCCGTATTTGGT (site GGTGTTTCTAC),0.556
5,GGTTAAACATGGACCGGTTTTCCCGGTAATCCGTATTTGGT (site GGTTAAACTAC),0.137
6,GGTTAGGCATGGACCGGTTTTCCCGGTAATCCGTATTTGAG (site GGTTAGGCTCT),0.952
7,GGTTATCCATGGACCGGTTTTCCCGGTAATCCGTATTTGCT (site GATTATCCTAG),0
8,GGTTATCCATGGACCGGTTTTCCCGGTAATCCGTATTTGCT (site GCTTATCCTAG),0.196
9,GGTTATCCATGGACCGGTTTTCCCGGTAATCCGTATTTGCT (site GGTTATCCTAG),0
10,GGTTATCCATGGACCGGTTTTCCCGGTAATCCGTATTTGCT (site GTTTATCCTAG),0
11,GGTTCGCCATGGACCGGTTTTCCCGGTAATCCGTATTTGCG (site GGTTCGCCTCG),0
12,GGTTGCCCATGGACCGGTTTTCCCGGTAATCCGTATTTGAT (site GATTGCCCTAT),0.0175
13,GGTTGCCCATGGACCGGTTTTCCCGGTAATCCGTATTTGAT (site GCTTGCCCTAT),0.0066
14,GGTTGCCCATGGACCGGTTTTCCCGGTAATCCGTATTTGAT (site GGTTGCCCTAT),0.0592
15,GGTTGCCCATGGACCGGTTTTCCCGGTAATCCGTATTTGAT (site GTTTGCCCTAT),0.0119
16,GGTTTACCATGGACCGGTTTTCCCGGTAATCCGTATTTGGG (site GGTTTACCTCC),0.0308
17,GTAAAAGCATGGACCGGTTTTCCCGGTAATCCGTATTTGCC (site GTAAAAGCTGG),1.27
18,GTAAAGTCATGGACCGGTTTTCCCGGTAATCCGTATTTGCA (site GTAAAGTCTTG),2.95
19,GTAACTCCATGGACCGGTTTTCCCGGTAATCCGTATTTGTC (site GTAACTCCTGA),1.71
